Blank lines part the entries; values can stand above or below the molecule they belong to. Non-standard residues stand in square brackets, D forms with d. Residues, ends and D or L forms follow the SMILES beside them. No end group written: not given here. *: point of attachment. Hydrocinnamoyl = O=C(CCc1ccccc1)*; Nle = CCCC[C@H](N)C(=O)O
How the values were obtained:
PTH1R receptor [1] = molecular target: T1, PTH1R receptor (Homo sapiens, UniProt Q03431); test: kidney-based assays; format: binding; conditions: kidney-based assay
T1 sequence (Q03431 27-593): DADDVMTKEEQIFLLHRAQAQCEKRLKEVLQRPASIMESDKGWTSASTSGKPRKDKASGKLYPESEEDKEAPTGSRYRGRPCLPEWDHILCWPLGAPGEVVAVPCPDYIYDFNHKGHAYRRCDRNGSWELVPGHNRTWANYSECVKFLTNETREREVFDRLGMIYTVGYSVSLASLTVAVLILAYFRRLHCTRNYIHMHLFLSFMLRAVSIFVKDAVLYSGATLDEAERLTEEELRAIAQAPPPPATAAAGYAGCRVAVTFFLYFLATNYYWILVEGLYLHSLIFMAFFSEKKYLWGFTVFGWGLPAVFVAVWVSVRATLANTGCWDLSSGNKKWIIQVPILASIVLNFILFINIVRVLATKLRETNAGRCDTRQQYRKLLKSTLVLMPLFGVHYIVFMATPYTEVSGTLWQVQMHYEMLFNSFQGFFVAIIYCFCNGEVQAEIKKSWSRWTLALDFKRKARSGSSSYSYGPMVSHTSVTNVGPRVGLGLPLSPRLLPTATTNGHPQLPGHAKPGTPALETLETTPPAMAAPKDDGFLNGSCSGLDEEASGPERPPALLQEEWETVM

PTH1R receptor [2] = molecular target: T1, PTH1R receptor; test: bone-based assays; format: binding; conditions: bon-based assay
PTH1R receptor [3] = molecular target: T1, PTH1R receptor; test: potency of inverse agonist peptides (assay not specified)
[4] = molecular target: T2, Type I PTH/PTHrP receptor (PTH1R receptor); test: bone-based assay
T2 chain: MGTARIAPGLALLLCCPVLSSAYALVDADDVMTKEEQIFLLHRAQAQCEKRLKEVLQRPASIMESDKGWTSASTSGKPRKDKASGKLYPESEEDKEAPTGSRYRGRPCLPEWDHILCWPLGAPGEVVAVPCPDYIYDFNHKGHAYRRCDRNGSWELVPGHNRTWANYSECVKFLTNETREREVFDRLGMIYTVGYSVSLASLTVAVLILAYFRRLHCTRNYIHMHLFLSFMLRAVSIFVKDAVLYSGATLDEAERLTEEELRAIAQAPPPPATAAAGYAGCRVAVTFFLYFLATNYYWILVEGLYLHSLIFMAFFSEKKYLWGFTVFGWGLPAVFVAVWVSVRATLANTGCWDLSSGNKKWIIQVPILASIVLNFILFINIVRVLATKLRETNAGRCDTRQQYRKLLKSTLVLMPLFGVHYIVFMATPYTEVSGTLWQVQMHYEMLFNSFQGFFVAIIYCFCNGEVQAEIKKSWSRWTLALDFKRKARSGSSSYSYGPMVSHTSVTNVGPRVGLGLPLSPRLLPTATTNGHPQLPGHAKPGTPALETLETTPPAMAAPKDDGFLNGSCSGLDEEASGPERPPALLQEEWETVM

[5] = molecular target: T2, Type I PTH/PTHrP receptor (PTH1R …); test: kidney-based assay

Ki (PTH1R receptor [1]): 73 nM | Kd (PTH1R receptor [1]; read-out: Kbinding): 4 nM | Ki (PTH1R receptor [2]): 3.5 nM | Kd (PTH1R receptor [2]; read-out: Kbinding): 9 nM
Molecule: CCCC[C@H](NC(=O)[C@H](CO)NC(=O)[C@H](CO)NC(=O)[C@H](CC(C)C)NC(=O)[C@H](Cc1c[nH]cn1)NC(=O)[C@H](CCCCNC(=O)CCc1ccccc1)NC(=O)CNC(=O)[C@H](CC(C)C)NC(=O)[C@H](CC(N)=O)NC(=O)[C@H](Cc1c[nH]cn1)NC(=O)[C@H](CCCC)NC(=O)[C@@H](N)Cc1ccccc1)C(=O)N[C@@H](CCC(=O)O)C(=O)N[C@@H](CCCNC(=N)N)C(=O)N[C@H](C(=O)N[C@@H](CCC(=O)O)C(=O)N[C@@H](Cc1c[nH]c2ccccc12)C(=O)N[C@@H](CC(C)C)C(=O)N[C@@H](CCCNC(=N)N)C(=O)N[C@@H](CCCCN)C(=O)N[C@@H](CCCCN)C(=O)N[C@@H](CC(C)C)C(=O)N[C@@H](CCC(N)=O)C(=O)N[C@@H](CC(=O)O)C(=O)N[C@H](C(=O)N[C@@H](Cc1c[nH]cn1)C(=O)N[C@@H](CC(N)=O)C(=O)N[C@@H](Cc1ccc(O)cc1)C(=O)O)C(C)C)C(C)C (H-F[Nle]HNLGK(Hydrocinnamoyl)HLSS[Nle]ERVEWLRKKLQDVHNY-OH; N-terminus and C-terminus assumed)

potency (PTH1R receptor [3]): increased potency
Molecule: Leu-Leu-His-Asp-Leu-D-Trp-Lys(cyclization)-Ser-Ile-Gln-Asp(cyclization)-Leu-Arg-Arg-Arg-Phe-Phe-Leu-His-His-Leu-Ile-Ala-Glu-Ile-His-Thr-Ala-NH2

Molecule: Leu-Leu-His-Asn-Leu-Gly-Lys-Ser-Ile-Gln-Asp-Leu-Arg-Arg-Arg-Phe-Phe-Leu-His-His-Leu-Ile-Ala-Glu-Ile-His-Thr-Ala-NH2 (LLHNLGKSIQDLRRRFFLHHLIAEIHTA-NH2)
fold more potent than PTHrP 7-34 (PTH1R receptor [3]; relative to PTHrP 7-34): (which is 23 fold more potent than PTHrP 7-34);

Ki [4]: 3.5 nM | Ki [5]: 73 nM
B1: Phe-Nle-His-Asn-Leu-Gly-Lys-(epsilon-3-phenylpropanoyl)-His-Leu-Ser-Ser-Nle-Glu-Arg-Val-Glu-Trp-Leu-Arg-Lys-Lys-Leu-Gln-Asp-Val-His-Asn-Tyr (peptide)
peptide: FXHNLGKHLSSXERVEWLRKKLQDVHNY
modifications: Nle (norleucine) at peptide positions 2 and 12 (written X in letters); Lys at peptide position 7 carries epsilon-3-phenylpropanoyl
